Assays:
Format in all cases: cell-based, human
MDA-MB-231 cells [1] = assay: Annexin V-FITC/PI apoptosis assay; details: for total increase in apoptotic and necrotic cells compared to control: MDA-MB-231, Annexin V-FITC; for Percent of cell death: Apoptosis Late / Percent of cell death: Necrosis / Percent of cell death: Apoptosis Early / Percent of cell death: Total: MDA-MB-231, IC50 concentration, 48 h; for Percent of cell death: Apoptosis Late: control 0.31; for Percent of cell death: Necrosis: control 0.47; for Percent of cell death: Apoptosis Early: control 1.09; for Percent of cell death: Total: control 1.87
Procedure: So, inhibiting survivin should result in increased spontaneous apoptosis in tumor cells. In this study, the apoptotic potential of 5c and 5e was further assessed using Annexin V-FITC assay.
MDA-MB-231 cells were plated in 24-well tissue culture plates. […] After 48 h, cells that floated were collected from the medium. The adherent cells were separated using 0.05% trypsin. After that, a 10% FBS medium was added for inactivating trypsin. Following slow pipetting, the centrifugation of cells was done for 5 min at 1500× g. Then, the supernatant was discarded, and cells were then stained with double annexin V-fluorescein isothiocyanate in addition to propidium iodide (PI) staining following the manufacturer’s directions. Analysis of the cells was investigated using a FACScan flow cytometer.

MDA-MB-231 cells [2] = assay: Cell cycle analysis by flow cytometry; details: MDA-MB-231, IC50 concentration, 24 h; for %Pre-G1: control 1.87; for %G2-M: control 4.38; for %S: control 35.21; for %G0-G1: control 60.41
Text: Survivin has been recognized to play dual roles in stimulating cell-cycle progression and in obstructing apoptosis. Additionally, survivin is known to be expressed mainly in the G2/M phase of the cell cycle. Therefore, it was significant to examine the ability of our promising compounds 5c and 5e to induce cell cycle arrest. […] As shown in Figure 2 and Table 3, both 5c and 5e caused an increase in the number of cells in the G2/M phase by 4.92 and 5.74 folds, respectively, compared to the control cells. At the same time, a decrease in the DNA content in the G0/G1 phase, and a slight decrease in the S phase cells were observed. […] Supplementary Material Figures S37–S39 contain the cell cycle analysis for control and compounds 5c and 5e.
After that, cells were collected by trypsin and washed in saline buffered with phosphate. Then, they were fixed using ice-cold alcohol. Afterwards, cells were stained by a Cycle TESTTM PLUS DNA Reagent Kit (BD Biosciences, San Jose, CA, USA) according to the manufacturer’s directions. The distribution of the cells in the cell cycle was calculated using a FACS Calibur flow cytometer (BD Biosciences, San Jose, CA, USA).

[3] = system: prostate carcinoma (PC-3) cells; assay: SRB cytotoxicity assay, PC-3; details: for IC50: Homo sapiens, PC-3, SRB assay, 72 h, mean ± SD of three experiments; for Selectivity Index PC-3: SI = IC50 on WI-38/IC50 on PC-3
Procedure: In the present work, sulforhodamine B (SRB) colorimetric assay was done to evaluate the cytotoxic activity of the synthesized 3-cyano pyridines 4a–4e, 5a–5e, and 6a–6e on three human cancer cell lines: prostate carcinoma (PC-3), breast cancer (MDA-MB-231) and hepatocellular carcinoma (HepG2) cell lines. 5-FU was used as a standard drug for comparison.
Human cancer cells were obtained from Nawah Scientific Inc. (Mokatam, Cairo, Egypt). Cells were maintained in DMEM media containing […] streptomycin, 100 units/mL penicillin, and 10% heat-inactivated fetal bovine serum in humified, 5% (v/v) CO2 atmosphere at 37 °C.
Cell viability was estimated using the SRB assay. Aliquots of 100 µL cell suspension (5 × 10^3 cells) in 96-well plates were incubated in complete media for 24 h. Cells were treated with a second aliquot of 100 µL media containing various concentrations of the tested compounds (0.01, 0.1, 1, 10, and 100 μM). After 72 h, cells were fixed by replacing media with 15 µL of 10% TCA and then incubated at 4 °C for 1 h. After that, TCA solution was removed, and the cells were washed 5 times with distilled water. Aliquots of 70 µL SRB solution (0.4% w/v) were added and incubated in a dark place at room temperature for 10 min. Plates were washed 3 times with 1% acetic acid and allowed to air dry overnight. Then, 150 µL of TRIS (10 mM) was added to dissolve protein-bound SRB stain. The absorbance was measured at 540 nm using BMG LABTECH®-FLUO star Omega microplate reader (Ortenberg, Germany).

C-IAP1 = assay: Western blotting of C-IAP1 in MDA-MB-231 cells; details: for C-IAP1 protein level (Western blot, in words): MDA-MB-231, 1, 5 and 10 µM
Procedure: (§1) The ability of the 2-oxo-3-cyano pyridines 5c and 5e to cause an inhibition of survivin was evaluated by the use of Western blotting analysis in MDA-MB-231cells treated with different concentrations of both compounds (1, 5, and 10 µM). […] Furthermore, to test the effect of these compounds on some other IAP family proteins, the Western plot of Livin, XIAP, and C-IAP1 proteins was performed (Figure 6). […] The Supplementary Material Figures S40 and S41 contain western blotting analysis for 5c and 5e.
(§2) MDA-MB-231 cancer cells were incubated with 5c and 5e at different concentrations (1, 5, and 10 µM) for 48 h. Afterwards, the medium was detached, and the cells were washed using PBS (10 mmol/L, pH 7.4). Then, the cells were incubated on cold lysis buffer (50 mmol/L Tris–HCl, 150 mmol/L NaCl, 1 mmol/L EGTA, 1 mmol/L EDTA, 20 mmol/L NaF, […], 0.5% NP40, 1% Triton X-100, 1 mmol/L PMSF (pH 7.4)) and a freshly added cocktail inhibitor (Inhibitor Cocktail Set III, Calbiochem, La Jolla, CA) above ice for 30 min. Then, MDA-MB-231 cells were collected and centrifuged at 12,000× g for 15 min.
(§3) XIAp, Survivin, Livin, and cIAP1anti-mouse, anti-rabbit secondary antibodies, and GAPDH were purchased from Sigma-Aldrich, whereas the gel was obtained from BioRad. Polyacrylamide gels were moved to a nitrocellulose membrane in order to block in buffer (7% nonfat dry milk/1% Tween 20; in 20 mmol/L TBS (pH 7.6)) for 1 h and incubated for 2 h at room temperature with the suitable primary antibody in blocking buffer or overnight at 4 °C; then, they were incubated with secondary antibody HRP conjugate. Finally, the blots analysis was done using the imaging system.

Livin = assay: Western blotting of Livin in MDA-MB-231 cells; details: for Livin protein level (Western blot, in words): MDA-MB-231, 1, 5 and 10 µM
Procedure: as §1, §2, §3

SMILES	total increase in apoptotic and necrotic cells compared to control (MDA-MB-231 cells [1]) [fold]	Percent of cell death: Apoptosis Late (MDA-MB-231 cells [1]) [%]	Percent of cell death: Necrosis (MDA-MB-231 cells [1]) [%]	Percent of cell death: Apoptosis Early (MDA-MB-231 cells [1]) [%]	Percent of cell death: Total (MDA-MB-231 cells [1]) [%]	increase in the number of cells in the G2/M phase compared to control (MDA-MB-231 cells [2]) [fold]	%Pre-G1 (MDA-MB-231 cells [2]) [%]	%G2-M (MDA-MB-231 cells [2]) [%]	%S (MDA-MB-231 cells [2]) [%]	%G0-G1 (MDA-MB-231 cells [2]) [%]	IC50 [3] [µM]	Selectivity Index PC-3 [3]	CIAP1 band % (C-IAP1; MDA-MB-231, 1µM) [%]	CIAP1 band Area (C-IAP1; MDA-MB-231, 1µM)	CIAP1 band Height (C-IAP1; MDA-MB-231, 1µM)	CIAP1 band Width (C-IAP1; MDA-MB-231, 1µM)	CIAP1 band % (C-IAP1; MDA-MB-231, 5µM) [%]	CIAP1 band Area (C-IAP1; MDA-MB-231, 5µM)	CIAP1 band Height (C-IAP1; MDA-MB-231, 5µM)	CIAP1 band Width (C-IAP1; MDA-MB-231, 5µM)	further results
N#Cc1c(-c2ccc(Cl)cc2)cc(-c2ccc(OCc3ccc(F)cc3)cc2)[nH]c1=O [Compound 5c, 4-(4-Chlorophenyl)-6-(4-((4-fluorobenzyl)oxy)phenyl)-2-oxo-1,2-dihydropyridine-3-carbonitrile]	8.72	8.67	2.58	5.07	16.32	4.92	16.32	21.57	33.16	45.27	14.4 ± 0.38	6.33	39.7	2565	192	24	34.1	1941	187	22	cytotoxicity relative to 5-FU ([3]; cell line not specified (PC-3, MDA-MB-231, HepG2 tested)): nearly half that of 5-FU; CIAP1 band % (C-IAP1; MDA-MB-231, 10µM): 31.9%; CIAP1 band Area (C-IAP1; MDA-MB-231, 10µM): 1884; CIAP1 band Height (C-IAP1; MDA-MB-231, 10µM): 186; CIAP1 band Width (C-IAP1; MDA-MB-231, 10µM): 18; C-IAP1 protein level (Western blot, in words) (C-IAP1): decreased the levels of these proteins; LIVIN band % (Livin; MDA-MB-231, 1µM): 20.2%; LIVIN band Area (Livin; MDA-MB-231, 1µM): 1305; LIVIN band Height (Livin; MDA-MB-231, 1µM): 134; LIVIN band Width (Livin; MDA-MB-231, 1µM): 22; LIVIN band % (Livin; MDA-MB-231, 5µM): 13.4%; LIVIN band Area (Livin; MDA-MB-231, 5µM): 793; LIVIN band Height (Livin; MDA-MB-231, 5µM): 84; LIVIN band Width (Livin; MDA-MB-231, 5µM): 17; LIVIN band % (Livin; MDA-MB-231, 10µM): 9.1%; LIVIN band Area (Livin; MDA-MB-231, 10µM): 514; LIVIN band Height (Livin; MDA-MB-231, 10µM): 66; LIVIN band Width (Livin; MDA-MB-231, 10µM): 17; Livin protein level (Western blot, in words) (Livin): decreased the levels of these proteins
COc1ccc(-c2cc(-c3ccc(OCc4ccc(F)cc4)cc3)[nH]c(=O)c2C#N)cc1 [Compound 5e, 6-(4-((4-Fluorobenzyl)oxy)phenyl)-4-(4-methoxyphenyl)-2-oxo-1,2-dihydropyridine-3-carbonitrile]	10.41	10.91	2.38	6.18	19.47	5.74	19.47	25.16	32.48	42.36	4.46 ± 0.51	22.99	18.2	987	98	24	12.6	766	86	23	activity relative to 5-FU, PC-3 ([3]; cytotoxicity compared with 5-FU): twice the activity of 5-FU; CIAP1 band % (C-IAP1; MDA-MB-231, 10µM): 10.2%; CIAP1 band Area (C-IAP1; MDA-MB-231, 10µM): 570; CIAP1 band Height (C-IAP1; MDA-MB-231, 10µM): 79; CIAP1 band Width (C-IAP1; MDA-MB-231, 10µM): 22; C-IAP1 protein level (Western blot, in words) (C-IAP1): decreased the levels of these proteins; LIVIN band % (Livin; MDA-MB-231, 1µM): 25.7%; LIVIN band Area (Livin; MDA-MB-231, 1µM): 2085; LIVIN band Height (Livin; MDA-MB-231, 1µM): 136; LIVIN band Width (Livin; MDA-MB-231, 1µM): 33; LIVIN band % (Livin; MDA-MB-231, 5µM): 16.6%; LIVIN band Area (Livin; MDA-MB-231, 5µM): 907; LIVIN band Height (Livin; MDA-MB-231, 5µM): 68; LIVIN band Width (Livin; MDA-MB-231, 5µM): 27; LIVIN band % (Livin; MDA-MB-231, 10µM): 9.8%; LIVIN band Area (Livin; MDA-MB-231, 10µM): 330; LIVIN band Height (Livin; MDA-MB-231, 10µM): 44; LIVIN band Width (Livin; MDA-MB-231, 10µM): 14; Livin protein level (Western blot, in words) (Livin): decreased the levels of these proteins

Source: PMC7660103, “Discovery of Novel 3-Cyanopyridines as Survivin Modulators and Apoptosis Inducers” (Molecules, 2020)
